Measurements: ChEMBL document CHEMBL4422610, “HDAC as onco target: Reviewing the synthetic approaches with SAR study of their inhibitors” (Eur J Med Chem, 2018)
Values belong to the compound of their own block, whether it stands above or below them.

Assays:
Histone deacetylase 2 = Histone deacetylase 2 (Homo sapiens, UniProt Q92769)
Histone deacetylase 1 [1] = molecular target: T1, Histone deacetylase 1 (Homo sapiens, UniProt Q13547); experiment: Inhibition of recombinant human FLAG/His-tagged HDAC1 expressed in baculovirus expression system using Boc-l-Lys(Ac)-AMC as substrate preincubated up to 3 hrs and measured after 35 mins by fluorescence assay
Histone deacetylase 8 [2] = molecular target: T2, Histone deacetylase 8 (Homo sapiens, UniProt Q9BY41); experiment: Inhibition of HDAC8 (unknown origin) expressed in Escherichia coli using BML-KI-178 as substrate preincubated up to 3 hrs and measured after 35 mins by fluorescence assay
T2 sequence (Q9BY41 whole entry): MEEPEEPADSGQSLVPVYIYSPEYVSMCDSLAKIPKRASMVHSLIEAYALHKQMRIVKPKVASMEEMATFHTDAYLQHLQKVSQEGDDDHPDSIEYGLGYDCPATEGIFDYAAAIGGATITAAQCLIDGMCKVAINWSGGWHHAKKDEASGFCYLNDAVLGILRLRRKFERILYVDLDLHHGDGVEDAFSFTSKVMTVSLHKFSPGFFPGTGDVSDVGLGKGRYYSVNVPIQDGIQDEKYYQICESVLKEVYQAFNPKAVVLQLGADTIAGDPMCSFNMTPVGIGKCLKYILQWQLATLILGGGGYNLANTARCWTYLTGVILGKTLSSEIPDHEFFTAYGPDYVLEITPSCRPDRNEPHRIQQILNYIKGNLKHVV

[3] = molecular target: Histone deacetylase 3/Nuclear receptor corepressor 2 (HDAC3/NCoR2) (Homo sapiens, UniProt O15379); experiment: Inhibition of human recombinant full length C-terminal His-tagged HDAC3 (1 to 428 residues)/N-terminal GST-tagged NCOR2 (395 to 489 residues) expressed in insect cells using Boc-l-Lys(Ac)-AMC as substrate preincubated up to 3 hrs and measured after 35 mins by fluorescence assay
Histone deacetylase 1 [4] = molecular target: T1, Histone deacetylase 1; experiment: Inhibition of HDAC1 (unknown origin)
[5] = molecular target: T3, Protein deacetylase HDAC6 (Homo sapiens, UniProt Q9UBN7); experiment: Inhibition of HDAC6 (unknown origin)
T3 sequence (Q9UBN7 whole entry): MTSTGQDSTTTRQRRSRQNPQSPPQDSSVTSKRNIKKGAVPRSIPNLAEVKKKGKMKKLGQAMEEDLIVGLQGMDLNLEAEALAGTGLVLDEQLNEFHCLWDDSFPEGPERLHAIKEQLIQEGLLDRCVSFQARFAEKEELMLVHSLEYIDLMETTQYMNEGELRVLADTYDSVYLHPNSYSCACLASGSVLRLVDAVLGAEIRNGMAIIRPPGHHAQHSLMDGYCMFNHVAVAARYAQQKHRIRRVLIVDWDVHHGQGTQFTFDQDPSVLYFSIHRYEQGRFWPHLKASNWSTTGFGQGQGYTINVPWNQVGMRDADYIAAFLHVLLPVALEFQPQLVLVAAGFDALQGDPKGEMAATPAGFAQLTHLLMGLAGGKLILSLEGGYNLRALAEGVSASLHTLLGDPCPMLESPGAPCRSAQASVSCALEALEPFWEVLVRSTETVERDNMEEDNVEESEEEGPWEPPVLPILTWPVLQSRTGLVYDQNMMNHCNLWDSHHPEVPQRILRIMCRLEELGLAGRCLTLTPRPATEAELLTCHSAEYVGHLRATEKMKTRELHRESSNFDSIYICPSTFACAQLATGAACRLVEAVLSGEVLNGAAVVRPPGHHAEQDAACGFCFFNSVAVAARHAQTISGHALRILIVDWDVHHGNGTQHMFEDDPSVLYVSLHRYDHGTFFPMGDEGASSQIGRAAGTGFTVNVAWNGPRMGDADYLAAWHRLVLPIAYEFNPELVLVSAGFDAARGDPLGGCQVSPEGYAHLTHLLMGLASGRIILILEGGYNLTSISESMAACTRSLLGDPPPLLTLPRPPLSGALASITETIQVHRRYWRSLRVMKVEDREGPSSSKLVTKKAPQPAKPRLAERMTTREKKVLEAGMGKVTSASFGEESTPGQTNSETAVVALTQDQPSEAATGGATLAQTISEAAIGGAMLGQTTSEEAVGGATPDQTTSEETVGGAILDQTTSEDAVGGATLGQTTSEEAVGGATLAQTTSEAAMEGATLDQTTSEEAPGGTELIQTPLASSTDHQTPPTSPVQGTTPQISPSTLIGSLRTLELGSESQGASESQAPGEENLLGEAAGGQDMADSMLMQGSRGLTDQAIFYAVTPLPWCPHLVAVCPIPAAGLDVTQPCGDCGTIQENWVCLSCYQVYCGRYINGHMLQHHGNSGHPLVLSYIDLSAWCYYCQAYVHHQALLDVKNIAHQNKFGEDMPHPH

Histone deacetylase 8 [6] = molecular target: T2, Histone deacetylase 8; experiment: Inhibition of HDAC8 (unknown origin)
[7] = molecular target: T3, Protein deacetylase HDAC6; experiment: Inhibition of recombinant full-length human N-terminal GST-tagged HDAC6 expressed in baculovirus infected Sf9 insect cells using fluorescent-labelled Arg-His-Lys-Lys(Ac) as substrate measured after 2 hrs by fluorescence assay
Histone deacetylase 8 [8] = molecular target: T2, Histone deacetylase 8; experiment: Inhibition of HDAC8 in human HeLa nuclear extract using Boc-Lys(acetyl)-AMC as substrate measured after 30 mins by fluorescence assay; format: cell-free
[9] = molecular target: T3, Protein deacetylase HDAC6; experiment: Inhibition of HDAC6 in human HeLa nuclear extract using Boc-Lys(acetyl)-AMC as substrate measured after 30 mins by fluorescence assay; format: cell-free
Histone deacetylase 4 = Histone deacetylase 4 (Homo sapiens, UniProt P56524); experiment: Inhibition of recombinant human HDAC4 expressed in HEK293T cells using Ac-KGLGK(Ac)-MCA as substrate measured after 30 mins by fluorescence assay
HeLa = experiment: cells; conditions: Homo sapiens, 48 h
K562 = experiment: cells; conditions: Homo sapiens, K562, 48 h
Histone deacetylase 1 [10] = molecular target: T1, Histone deacetylase 1; experiment: Inhibition of recombinant human HDAC1 expressed in HEK293T cells using Ac-KGLGK(Ac)-MCA as substrate measured after 30 mins by fluorescence assay
MCF7 = experiment: cells; conditions: Homo sapiens, MCF7, 48 h
[11] = molecular target: T4, Protein deacetylase HDAC6 (Mus musculus, UniProt Q9Z2V5); experiment: Inhibition of recombinant mouse HDAC6 expressed in HEK293T cells using Ac-KGLGK(Ac)-MCA as substrate measured after 30 mins by fluorescence assay
T4 sequence (Q9Z2V5 whole entry): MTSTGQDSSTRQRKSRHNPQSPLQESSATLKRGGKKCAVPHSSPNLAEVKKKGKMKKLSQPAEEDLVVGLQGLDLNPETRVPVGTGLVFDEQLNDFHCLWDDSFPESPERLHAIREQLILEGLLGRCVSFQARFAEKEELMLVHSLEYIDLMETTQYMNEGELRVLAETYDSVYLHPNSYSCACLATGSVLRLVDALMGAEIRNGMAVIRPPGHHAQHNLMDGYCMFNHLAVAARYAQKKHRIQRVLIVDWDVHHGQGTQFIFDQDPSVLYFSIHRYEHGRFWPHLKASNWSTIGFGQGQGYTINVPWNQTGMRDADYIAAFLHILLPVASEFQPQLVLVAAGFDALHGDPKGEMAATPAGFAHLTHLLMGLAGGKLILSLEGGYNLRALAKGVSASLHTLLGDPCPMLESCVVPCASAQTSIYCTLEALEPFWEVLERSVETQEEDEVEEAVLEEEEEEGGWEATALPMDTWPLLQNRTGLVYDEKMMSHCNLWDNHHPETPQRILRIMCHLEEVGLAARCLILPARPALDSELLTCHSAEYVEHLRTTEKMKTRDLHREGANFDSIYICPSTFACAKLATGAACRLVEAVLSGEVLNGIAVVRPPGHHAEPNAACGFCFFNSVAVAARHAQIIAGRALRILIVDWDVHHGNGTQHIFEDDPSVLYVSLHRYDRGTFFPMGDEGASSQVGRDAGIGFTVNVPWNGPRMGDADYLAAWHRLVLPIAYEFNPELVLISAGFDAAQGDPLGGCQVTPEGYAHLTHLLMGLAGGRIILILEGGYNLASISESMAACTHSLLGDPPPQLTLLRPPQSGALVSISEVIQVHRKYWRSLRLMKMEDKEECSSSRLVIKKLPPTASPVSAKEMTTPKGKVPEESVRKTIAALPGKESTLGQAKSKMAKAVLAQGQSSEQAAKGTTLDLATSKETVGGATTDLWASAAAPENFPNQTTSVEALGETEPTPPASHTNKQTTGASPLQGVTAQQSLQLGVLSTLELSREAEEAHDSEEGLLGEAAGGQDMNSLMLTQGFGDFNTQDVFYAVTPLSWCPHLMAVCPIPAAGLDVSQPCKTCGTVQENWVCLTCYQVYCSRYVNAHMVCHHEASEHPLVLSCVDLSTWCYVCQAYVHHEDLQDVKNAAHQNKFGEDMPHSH

Histone deacetylase 1 [12] = molecular target: T1, Histone deacetylase 1; experiment: Inhibition of HDAC1 (unknown origin) using (FAM)-labeled acetylated peptide as substrate measured after 17 hrs by fluorescence assay
MDA-MB-231 = experiment: cells; conditions: Homo sapiens
Histone deacetylase [13] = format: cell-based, Homo sapiens; conditions: hela
Histone deacetylase [14] = format: cell-based, Homo sapiens; conditions: hela; remark: listed apart in the source

Sequence of Histone deacetylase 2 (Q92769 whole entry): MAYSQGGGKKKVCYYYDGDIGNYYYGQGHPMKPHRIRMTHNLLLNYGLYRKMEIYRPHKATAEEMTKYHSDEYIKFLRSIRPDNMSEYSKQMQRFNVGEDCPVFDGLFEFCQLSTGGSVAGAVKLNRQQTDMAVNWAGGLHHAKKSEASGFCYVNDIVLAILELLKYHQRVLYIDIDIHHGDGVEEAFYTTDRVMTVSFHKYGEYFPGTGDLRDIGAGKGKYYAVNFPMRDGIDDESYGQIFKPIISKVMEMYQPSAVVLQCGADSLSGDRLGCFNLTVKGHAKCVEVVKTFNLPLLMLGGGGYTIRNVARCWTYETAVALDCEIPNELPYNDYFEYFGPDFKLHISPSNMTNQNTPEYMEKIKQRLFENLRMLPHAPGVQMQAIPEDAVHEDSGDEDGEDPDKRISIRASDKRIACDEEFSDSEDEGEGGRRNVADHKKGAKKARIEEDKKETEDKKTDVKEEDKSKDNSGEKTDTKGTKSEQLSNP
Sequence of Histone deacetylase 3/Nuclear receptor corepressor 2 (HDAC3/NCoR2) (O15379 whole entry, the tested form may be a part): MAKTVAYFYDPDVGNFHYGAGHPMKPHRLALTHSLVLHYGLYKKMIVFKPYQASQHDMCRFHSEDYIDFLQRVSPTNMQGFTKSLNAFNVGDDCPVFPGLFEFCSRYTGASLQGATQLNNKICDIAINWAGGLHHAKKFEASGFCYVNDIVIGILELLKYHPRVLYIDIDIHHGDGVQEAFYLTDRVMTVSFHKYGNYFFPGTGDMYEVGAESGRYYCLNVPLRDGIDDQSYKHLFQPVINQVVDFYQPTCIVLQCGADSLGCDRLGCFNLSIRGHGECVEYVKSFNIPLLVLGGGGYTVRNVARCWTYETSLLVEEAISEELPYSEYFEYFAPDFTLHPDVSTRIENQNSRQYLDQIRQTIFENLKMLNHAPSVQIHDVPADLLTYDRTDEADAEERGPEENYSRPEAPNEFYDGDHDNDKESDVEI
Sequence of Histone deacetylase 3/Nuclear receptor corepressor 2 (HDAC3/NCoR2) (Q9Y618 whole entry, further chain, the tested form may be a part): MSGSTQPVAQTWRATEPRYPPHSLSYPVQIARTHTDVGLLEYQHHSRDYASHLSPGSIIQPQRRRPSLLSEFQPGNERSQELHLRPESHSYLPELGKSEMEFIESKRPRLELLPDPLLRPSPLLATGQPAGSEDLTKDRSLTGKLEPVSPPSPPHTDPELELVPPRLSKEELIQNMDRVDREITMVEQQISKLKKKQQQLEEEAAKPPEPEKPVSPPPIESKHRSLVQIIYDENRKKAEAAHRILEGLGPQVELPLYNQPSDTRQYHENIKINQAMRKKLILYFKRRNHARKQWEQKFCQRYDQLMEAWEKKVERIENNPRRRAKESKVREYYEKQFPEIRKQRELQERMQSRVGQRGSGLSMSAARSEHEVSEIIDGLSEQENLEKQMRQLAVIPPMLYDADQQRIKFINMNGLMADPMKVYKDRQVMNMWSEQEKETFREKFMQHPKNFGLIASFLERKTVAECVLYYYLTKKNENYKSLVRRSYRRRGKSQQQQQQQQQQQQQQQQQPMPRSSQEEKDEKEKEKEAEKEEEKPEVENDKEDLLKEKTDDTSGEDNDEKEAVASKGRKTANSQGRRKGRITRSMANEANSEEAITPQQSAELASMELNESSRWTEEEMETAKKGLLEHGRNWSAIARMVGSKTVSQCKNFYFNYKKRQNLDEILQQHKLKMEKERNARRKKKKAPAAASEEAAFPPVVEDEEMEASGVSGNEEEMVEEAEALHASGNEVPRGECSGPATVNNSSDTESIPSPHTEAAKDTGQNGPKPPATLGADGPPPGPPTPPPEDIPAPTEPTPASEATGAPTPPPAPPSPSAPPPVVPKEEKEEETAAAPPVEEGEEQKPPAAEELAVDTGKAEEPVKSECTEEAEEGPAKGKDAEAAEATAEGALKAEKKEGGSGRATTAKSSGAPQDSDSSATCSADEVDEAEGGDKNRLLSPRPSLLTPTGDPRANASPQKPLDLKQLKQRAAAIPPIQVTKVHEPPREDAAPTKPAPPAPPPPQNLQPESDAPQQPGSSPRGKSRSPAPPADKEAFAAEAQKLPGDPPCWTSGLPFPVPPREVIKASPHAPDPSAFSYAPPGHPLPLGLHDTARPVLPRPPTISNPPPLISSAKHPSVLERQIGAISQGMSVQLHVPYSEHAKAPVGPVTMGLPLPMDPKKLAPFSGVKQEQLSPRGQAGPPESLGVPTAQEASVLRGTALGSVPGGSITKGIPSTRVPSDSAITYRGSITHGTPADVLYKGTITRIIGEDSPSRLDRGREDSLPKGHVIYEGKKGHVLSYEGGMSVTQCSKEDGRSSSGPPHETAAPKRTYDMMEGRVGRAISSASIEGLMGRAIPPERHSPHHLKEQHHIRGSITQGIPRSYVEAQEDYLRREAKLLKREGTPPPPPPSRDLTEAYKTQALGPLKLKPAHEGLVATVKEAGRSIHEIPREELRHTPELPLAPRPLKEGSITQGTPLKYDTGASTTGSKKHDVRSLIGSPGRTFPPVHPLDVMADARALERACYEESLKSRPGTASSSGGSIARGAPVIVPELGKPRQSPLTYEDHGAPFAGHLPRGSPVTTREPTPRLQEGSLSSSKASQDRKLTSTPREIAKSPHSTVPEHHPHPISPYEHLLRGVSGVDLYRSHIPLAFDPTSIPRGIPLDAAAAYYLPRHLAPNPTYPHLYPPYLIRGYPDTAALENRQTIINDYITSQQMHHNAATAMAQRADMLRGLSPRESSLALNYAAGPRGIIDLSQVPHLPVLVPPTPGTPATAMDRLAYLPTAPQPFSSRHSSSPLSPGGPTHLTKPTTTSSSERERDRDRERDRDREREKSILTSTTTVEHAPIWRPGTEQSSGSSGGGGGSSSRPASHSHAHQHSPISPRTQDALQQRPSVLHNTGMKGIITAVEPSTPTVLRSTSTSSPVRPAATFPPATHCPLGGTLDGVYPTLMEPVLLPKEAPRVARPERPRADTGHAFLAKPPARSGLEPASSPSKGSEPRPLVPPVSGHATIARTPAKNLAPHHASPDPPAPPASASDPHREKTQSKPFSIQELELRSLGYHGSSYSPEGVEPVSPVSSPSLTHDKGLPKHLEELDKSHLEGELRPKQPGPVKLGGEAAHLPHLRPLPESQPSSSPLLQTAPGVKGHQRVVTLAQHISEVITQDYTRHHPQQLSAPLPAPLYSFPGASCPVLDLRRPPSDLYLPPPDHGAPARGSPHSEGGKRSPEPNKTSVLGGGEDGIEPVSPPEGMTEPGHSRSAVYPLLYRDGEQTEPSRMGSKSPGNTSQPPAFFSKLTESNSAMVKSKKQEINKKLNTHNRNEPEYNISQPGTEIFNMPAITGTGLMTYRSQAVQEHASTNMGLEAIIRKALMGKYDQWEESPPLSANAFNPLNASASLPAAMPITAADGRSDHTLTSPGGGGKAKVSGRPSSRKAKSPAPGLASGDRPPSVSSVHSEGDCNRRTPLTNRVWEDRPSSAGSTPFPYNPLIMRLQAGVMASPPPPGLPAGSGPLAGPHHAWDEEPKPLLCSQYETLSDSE
T1 sequence (Q13547 whole entry): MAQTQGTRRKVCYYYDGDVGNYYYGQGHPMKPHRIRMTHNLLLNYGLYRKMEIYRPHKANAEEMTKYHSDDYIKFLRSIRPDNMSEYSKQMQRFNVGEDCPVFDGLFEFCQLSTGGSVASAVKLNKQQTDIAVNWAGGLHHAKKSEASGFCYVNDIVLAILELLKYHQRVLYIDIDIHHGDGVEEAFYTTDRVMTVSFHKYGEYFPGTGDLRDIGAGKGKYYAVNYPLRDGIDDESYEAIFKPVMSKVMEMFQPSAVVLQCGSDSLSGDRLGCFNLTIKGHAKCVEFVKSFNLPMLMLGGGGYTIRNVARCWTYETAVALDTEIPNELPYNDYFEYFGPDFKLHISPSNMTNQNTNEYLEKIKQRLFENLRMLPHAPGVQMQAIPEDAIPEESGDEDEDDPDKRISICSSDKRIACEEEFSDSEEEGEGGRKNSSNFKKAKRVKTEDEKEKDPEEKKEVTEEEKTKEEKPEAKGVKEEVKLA
Sequence of Histone deacetylase 4 (P56524 whole entry): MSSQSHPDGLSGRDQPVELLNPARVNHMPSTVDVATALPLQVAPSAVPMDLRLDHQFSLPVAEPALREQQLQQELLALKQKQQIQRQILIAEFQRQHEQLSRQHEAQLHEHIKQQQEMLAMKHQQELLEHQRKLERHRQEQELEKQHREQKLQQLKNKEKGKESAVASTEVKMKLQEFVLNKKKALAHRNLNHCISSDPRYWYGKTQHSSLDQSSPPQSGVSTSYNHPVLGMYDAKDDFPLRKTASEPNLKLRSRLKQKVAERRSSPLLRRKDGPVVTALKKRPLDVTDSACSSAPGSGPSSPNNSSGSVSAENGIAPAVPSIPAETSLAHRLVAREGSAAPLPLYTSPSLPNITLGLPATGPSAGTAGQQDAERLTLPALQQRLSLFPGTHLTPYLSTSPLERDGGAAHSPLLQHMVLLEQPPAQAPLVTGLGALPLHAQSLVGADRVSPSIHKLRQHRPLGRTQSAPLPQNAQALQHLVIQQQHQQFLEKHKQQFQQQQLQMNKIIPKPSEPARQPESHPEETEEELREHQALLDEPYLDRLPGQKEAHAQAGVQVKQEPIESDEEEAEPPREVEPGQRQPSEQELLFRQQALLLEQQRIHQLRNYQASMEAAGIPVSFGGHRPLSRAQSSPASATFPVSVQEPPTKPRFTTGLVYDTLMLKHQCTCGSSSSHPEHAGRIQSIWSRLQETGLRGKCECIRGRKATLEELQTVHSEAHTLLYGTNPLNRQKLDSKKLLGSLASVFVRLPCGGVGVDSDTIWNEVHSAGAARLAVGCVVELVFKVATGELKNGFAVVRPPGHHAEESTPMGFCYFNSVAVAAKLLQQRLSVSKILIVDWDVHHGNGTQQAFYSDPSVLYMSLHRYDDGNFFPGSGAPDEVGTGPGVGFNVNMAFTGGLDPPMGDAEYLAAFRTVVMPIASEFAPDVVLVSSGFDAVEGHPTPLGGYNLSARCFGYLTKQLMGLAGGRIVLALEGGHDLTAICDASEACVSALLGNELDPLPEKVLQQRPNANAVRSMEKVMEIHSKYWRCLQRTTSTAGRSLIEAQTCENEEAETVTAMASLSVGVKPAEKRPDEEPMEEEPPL

IC50 (Histone deacetylase 2): 2440 nM
IC50 (Histone deacetylase 1 [1]): 596 nM
IC50 (Histone deacetylase 8 [2]): 719 nM
IC50 [3]: 214 nM
Compound: O=C(CCCCCCNC(=O)c1c(-c2ccc(O)cc2)sc2cc(O)ccc12)NO

Compound: C[C@]12CC[C@@H]3c4ccc(O)cc4CC[C@H]3[C@@H]1CC[C@@]2(O)c1cn(CCCCCCC(=O)NO)nn1
IC50 (Histone deacetylase 1 [4]): 75 nM
IC50 [5]: 32 nM
IC50 (Histone deacetylase 8 [6]): 4000 nM

IC50 [7]: 540 nM
Compound: O=C(NO)c1ccc(N2CCCC2)cc1

IC50 (Histone deacetylase 8 [8]): 420 nM
IC50 [9]: 280 nM
Compound: CC(CNC(=O)c1ccc(/C=C/C(=O)NO)cc1)Oc1no[n+]([O-])c1S(=O)(=O)c1ccccc1 (stereo not given)

IC50 (Histone deacetylase 4): 14 nM
IC50 (HeLa): 48 nM
IC50 (K562): 104 nM
IC50 (Histone deacetylase 1 [10]): 15 nM
IC50 (MCF7): 26 nM
IC50 [11]: 160 nM
Compound: CC1CCCC2(C1)NC(=O)[C@H](CCCCCC(=O)NO)NC(=O)[C@H]1CCCN1C(=O)[C@H](Cc1ccccc1)NC2=O (stereo not given in full)

IC50 (Histone deacetylase 8 [8]): 260 nM
IC50 [9]: 160 nM
Compound: CNCCOc1no[n+]([O-])c1S(=O)(=O)c1ccccc1

IC50 (Histone deacetylase 1 [4]): 28 nM
IC50 [5]: 13 nM
IC50 (Histone deacetylase 8 [6]): 450 nM
Compound: C[C@]12CC[C@@H]3c4ccc(O)cc4CC[C@H]3[C@@H]1CC[C@@]2(O)c1cn(CCCCCCCC(=O)NO)nn1

IC50 [7]: 1.25 nM
Compound: Cc1c(CN(C)C)c2ccccc2n1-c1ccc(C(=O)NO)cc1

IC50 (Histone deacetylase 1 [12]): > 30000 nM
Compound: Nc1ccccc1NC(=O)CCCCCCC(=O)Nc1cccc(-c2cn(-c3ccccc3)nn2)c1

IC50 [7]: 6280 nM
Compound: CCN(CC)c1ccc(C(=O)NO)cc1

IC50 (Histone deacetylase 2): 1820 nM
IC50 (Histone deacetylase 1 [1]): 1030 nM
IC50 (Histone deacetylase 8 [2]): 29900 nM
IC50 [3]: 748 nM
Compound: O=C(CCCCCCn1cc(-c2ccc(C(=O)c3c(-c4ccc(O)cc4)sc4cc(O)ccc34)cc2)nn1)NO

IC50 (Histone deacetylase 2): 19200 nM
IC50 (Histone deacetylase 1 [1]): 839 nM
IC50 (Histone deacetylase 8 [2]): 23500 nM
IC50 [3]: 5740 nM
Compound: O=C(CCCCCn1cc(-c2ccc(C(=O)c3c(-c4ccc(O)cc4)sc4cc(O)ccc34)cc2)nn1)NO

IC50 (MDA-MB-231): 2140 nM
Compound: O=C(CCCCCCC(=O)Nc1ccccc1)NO [VORINOSTAT]

IC50 (Histone deacetylase 2): 665 nM
IC50 (Histone deacetylase 1 [1]): 168 nM
IC50 (Histone deacetylase 8 [2]): 400 nM
IC50 [3]: 128 nM
Compound: O=C(CCCCCCCNC(=O)c1c(-c2ccc(O)cc2)sc2cc(O)ccc12)NO

IC50 (Histone deacetylase [13]): 504 nM
IC50 (Histone deacetylase [14]): 36 nM
Compound: CCn1cnc(-c2ccc(OC)cc2)c1-c1ccc(/C=C/C(=O)NO)cc1

IC50 (Histone deacetylase 1 [4]): 15 nM
IC50 [5]: 8 nM
IC50 (Histone deacetylase 8 [6]): 11000 nM
Compound: C[C@]12CC[C@@H]3c4ccc(O)cc4CC[C@H]3[C@@H]1CC[C@@]2(O)c1cn(CCCCC(=O)NO)nn1

IC50 (Histone deacetylase 4): 6 nM
IC50 (HeLa): 309 nM
IC50 (K562): 876 nM
IC50 (Histone deacetylase 1 [10]): 10 nM
IC50 (MCF7): 31 nM
IC50 [11]: 130 nM
Compound: CC1CCCCC12NC(=O)[C@H](CCCCCC(=O)NO)NC(=O)[C@H]1CCCN1C(=O)[C@H](Cc1ccccc1)NC2=O (stereo not given in full)

IC50 (Histone deacetylase 8 [8]): 460 nM
IC50 [9]: 230 nM
Compound: O=C(/C=C/c1ccc(C(=O)NCCCOc2no[n+]([O-])c2S(=O)(=O)c2ccccc2)cc1)NO
